Experimental data published in patent publication US9113629B2, “4-amino-6-(4-substituted-phenyl)-picolinates and 6-amino-2-(4-substituted-phenyl)-pyrimidine-4-carboxylates and their use as herbicides” (DOW AGROSCIENCES LLC, priority 2013, dated 2015).

System: LOLSS: ryegrass including, Italian ryegrass (Lolium multiflorum), rigid ryegrass (Lolium rigidum), annual ryegrass (Lolium multiflorum subsp. Gaudini)
Assay: Post-emergent Test III, herbicidal activity in wheat and barley
Format: in vivo
Conditions: Table 9; dose for 50 percent growth reduction, probit analysis; 21 d
Outline: (§1)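 GR20, GR50, GR80 and GR90 come from probit analysis of visual injury scores (0 = none, 100 = complete kill) taken 21 d after treatment. Foliar application was by track sprayer delivering 187 L/ha at five rates, from high down to 1/16×, onto greenhouse plants at the 2–3 leaf stage, with solvent-blank controls.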

Q: For COC(=O)c1nc(-c2ccc(Br)cc2F)nc(N)c1OC [Compound 35], which “GR50 LOLSS” value is on record?
A: Its value is 126 g ai/ha.

Q: For COc1c(N)nc(-c2ccc(Br)cc2F)nc1C(=O)O [Compound 46], which “GR50 LOLSS” value is on record?
A: Its value is 118 g ai/ha.

Same assay, conditions: Table 9; dose for 80 percent growth reduction, probit analysis; 21 d

Q: Which “GR80 LOLSS” value does the source give for COC(=O)c1nc(-c2ccc(Br)cc2F)nc(N)c1OC [Compound 35] here?
A: The value was over 140 g ai/ha.

Q: Which “GR80 LOLSS” value does the source give for COc1c(N)nc(-c2ccc(Br)cc2F)nc1C(=O)O [Compound 46] here?
A: The value was over 140 g ai/ha.

System: HORSS: barley, including spring and winter (Hordeum vulgare)
Assay: as above
Format: in vivo
Conditions: Hordeum vulgare, post-emergence, 504 h; Table 9; 35 g ai/ha; post-emergent; 21 d; read-out: Visual Growth Reduction (%) 21 Days After Application HORSS
Outline: as §1

Q: Which pest or weed control at 35 g/ha does the source give for COC(=O)c1nc(-c2ccc(Br)cc2F)nc(N)c1OC [Compound 35] here?
A: The pest or weed control at 35 g/ha was 60 to 74%.

Q: For COc1c(N)nc(-c2ccc(Br)cc2F)nc1C(=O)O [Compound 46], which pest or weed control at 35 g/ha is on record?
A: Its pest or weed control at 35 g/ha is 60 to 74%.

Same assay, conditions: Hordeum vulgare, post-emergence, 504 h; Table 9; 70 g ai/ha; post-emergent; 21 d; read-out: Visual Growth Reduction (%) 21 Days After Application HORSS

Q: With COC(=O)c1nc(-c2ccc(Br)cc2F)nc(N)c1OC [Compound 35] as the compound, how does the pest or weed control at 70 g/ha read?
A: Its pest or weed control at 70 g/ha is 60 to 74%.

Q: Which pest or weed control at 70 g/ha does the source give for COc1c(N)nc(-c2ccc(Br)cc2F)nc1C(=O)O [Compound 46] here?
A: Its pest or weed control at 70 g/ha is 60 to 74%.

Same assay, conditions: Hordeum vulgare, post-emergence, 504 h; Table 9; 140 g ai/ha; post-emergent; 21 d; read-out: Visual Growth Reduction (%) 21 Days After Application HORSS

Q: Which pest or weed control at 140 g/ha does the source give for COc1c(N)nc(-c2ccc(Br)cc2F)nc1C(=O)O [Compound 46] here?
A: The pest or weed control at 140 g/ha was 85 to 94%.

Same assay, conditions: Table 9; dose for 20 percent growth reduction, probit analysis; 21 d

Q: For COC(=O)c1nc(-c2ccc(Br)cc2F)nc(N)c1OC [Compound 35], which “GR20 HORSS” value is on record?
A: Its value is 8 g ai/ha.

Q: For COc1c(N)nc(-c2ccc(Br)cc2F)nc1C(=O)O [Compound 46], which “GR20 HORSS” value is on record?
A: Its value is 8 g ai/ha.

System: not listed separately
Assay: as above
Format: in vivo, Lolium multiflorum, Lolium rigidum
Conditions: Lolium multiflorum, post-emergence, 504 h; Table 9; 35 g ai/ha; post-emergent; 21 d; read-out: Visual Growth Reduction (%) 21 Days After Application LOLSS
Outline: as §1

Q: For COC(=O)c1nc(-c2ccc(Br)cc2F)nc(N)c1OC [Compound 35], which pest or weed control at 35 g/ha is on record?
A: Its pest or weed control at 35 g/ha is 0 to 29%.

Q: Which pest or weed control at 35 g/ha does the source give for COc1c(N)nc(-c2ccc(Br)cc2F)nc1C(=O)O [Compound 46] here?
A: Its pest or weed control at 35 g/ha is 0 to 29%.

Same assay, conditions: Lolium multiflorum, post-emergence, 504 h; Table 9; 70 g ai/ha; post-emergent; 21 d; read-out: Visual Growth Reduction (%) 21 Days After Application LOLSS

Q: With COC(=O)c1nc(-c2ccc(Br)cc2F)nc(N)c1OC [Compound 35] as the compound, how does the pest or weed control at 70 g/ha read?
A: Its pest or weed control at 70 g/ha is 30 to 44%.

Q: Which pest or weed control at 70 g/ha does the source give for COc1c(N)nc(-c2ccc(Br)cc2F)nc1C(=O)O [Compound 46] here?
A: The pest or weed control at 70 g/ha was 30 to 44%.

Same assay, conditions: Lolium multiflorum, post-emergence, 504 h; Table 9; 140 g ai/ha; post-emergent; 21 d; read-out: Visual Growth Reduction (%) 21 Days After Application LOLSS

Q: With COc1c(N)nc(-c2ccc(Br)cc2F)nc1C(=O)O [Compound 46] as the compound, how does the pest or weed control at 140 g/ha read?
A: The pest or weed control at 140 g/ha was 45 to 59%.

System: APESV: bentgrass (Apera spica-venti)
Assay: as above
Format: in vivo
Conditions: Apera spica-venti, post-emergence, 504 h; Table 9; 35 g ai/ha; post-emergent; 21 d; read-out: Visual Growth Reduction (%) 21 Days After Application APESV
Outline: as §1

Q: With COC(=O)c1nc(-c2ccc(Br)cc2F)nc(N)c1OC [Compound 35] as the compound, how does the pest or weed control at 35 g/ha read?
A: The pest or weed control at 35 g/ha was 0 to 29%.

Q: With COc1c(N)nc(-c2ccc(Br)cc2F)nc1C(=O)O [Compound 46] as the compound, how does the pest or weed control at 35 g/ha read?
A: Its pest or weed control at 35 g/ha is 0 to 29%.

Same assay, conditions: Apera spica-venti, post-emergence, 504 h; Table 9; 70 g ai/ha; post-emergent; 21 d; read-out: Visual Growth Reduction (%) 21 Days After Application APESV

Q: With COC(=O)c1nc(-c2ccc(Br)cc2F)nc(N)c1OC [Compound 35] as the compound, how does the pest or weed control at 70 g/ha read?
A: The pest or weed control at 70 g/ha was 30 to 44%.

Q: Which pest or weed control at 70 g/ha does the source give for COc1c(N)nc(-c2ccc(Br)cc2F)nc1C(=O)O [Compound 46] here?
A: The pest or weed control at 70 g/ha was 0 to 29%.

Same assay, conditions: Apera spica-venti, post-emergence, 504 h; Table 9; 140 g ai/ha; post-emergent; 21 d; read-out: Visual Growth Reduction (%) 21 Days After Application APESV

Q: For COc1c(N)nc(-c2ccc(Br)cc2F)nc1C(=O)O [Compound 46], which pest or weed control at 140 g/ha is on record?
A: The pest or weed control at 140 g/ha was 45 to 59%.

Same assay, conditions: Table 9; dose for 50 percent growth reduction, probit analysis; 21 d

Q: For COC(=O)c1nc(-c2ccc(Br)cc2F)nc(N)c1OC [Compound 35], which “GR50 APESV” value is on record?
A: Its value is 113 g ai/ha.

Q: For COc1c(N)nc(-c2ccc(Br)cc2F)nc1C(=O)O [Compound 46], which “GR50 APESV” value is on record?
A: The value was over 140 g ai/ha.

Same assay, conditions: Table 9; dose for 80 percent growth reduction, probit analysis; 21 d

Q: For COC(=O)c1nc(-c2ccc(Br)cc2F)nc(N)c1OC [Compound 35], which “GR80 APESV” value is on record?
A: The value was over 140 g ai/ha.

Q: For COc1c(N)nc(-c2ccc(Br)cc2F)nc1C(=O)O [Compound 46], which “GR80 APESV” value is on record?
A: Its value is over 140 g ai/ha.

System: TRZSS: wheat, including spring and winter (Triticum aestivum)
Assay: as above
Format: in vivo
Conditions: Table 9; dose for 20 percent growth reduction, probit analysis; 21 d
Outline: as §1

Q: With COC(=O)c1nc(-c2ccc(Br)cc2F)nc(N)c1OC [Compound 35] as the compound, how does the “GR20 TRZSS” value read?
A: The value was 2 g ai/ha.

Q: For COc1c(N)nc(-c2ccc(Br)cc2F)nc1C(=O)O [Compound 46], which “GR20 TRZSS” value is on record?
A: Its value is 1 g ai/ha.

Same assay, conditions: Triticum aestivum, post-emergence, 504 h; Table 9; 35 g ai/ha; post-emergent; 21 d; read-out: Visual Growth Reduction (%) 21 Days After Application TRZSS

Q: For COC(=O)c1nc(-c2ccc(Br)cc2F)nc(N)c1OC [Compound 35], which pest or weed control at 35 g/ha is on record?
A: The pest or weed control at 35 g/ha was 75 to 84%.

Q: With COc1c(N)nc(-c2ccc(Br)cc2F)nc1C(=O)O [Compound 46] as the compound, how does the pest or weed control at 35 g/ha read?
A: Its pest or weed control at 35 g/ha is 75 to 84%.

Same assay, conditions: Triticum aestivum, post-emergence, 504 h; Table 9; 70 g ai/ha; post-emergent; 21 d; read-out: Visual Growth Reduction (%) 21 Days After Application TRZSS

Q: For COC(=O)c1nc(-c2ccc(Br)cc2F)nc(N)c1OC [Compound 35], which pest or weed control at 70 g/ha is on record?
A: The pest or weed control at 70 g/ha was 75 to 84%.

Q: Which pest or weed control at 70 g/ha does the source give for COc1c(N)nc(-c2ccc(Br)cc2F)nc1C(=O)O [Compound 46] here?
A: Its pest or weed control at 70 g/ha is 75 to 84%.

Same assay, conditions: Triticum aestivum, post-emergence, 504 h; Table 9; 140 g ai/ha; post-emergent; 21 d; read-out: Visual Growth Reduction (%) 21 Days After Application TRZSS

Q: Which pest or weed control at 140 g/ha does the source give for COc1c(N)nc(-c2ccc(Br)cc2F)nc1C(=O)O [Compound 46] here?
A: The pest or weed control at 140 g/ha was 85 to 94%.

System: KCHSC: kochia (Kochia scoparia)
Assay: as above
Format: in vivo
Conditions: Bassia scoparia, post-emergence, 504 h; Table 9; 35 g ai/ha; post-emergent; 21 d; read-out: Visual Growth Reduction (%) 21 Days After Application KCHSC
Outline: as §1

Q: For COC(=O)c1nc(-c2ccc(Br)cc2F)nc(N)c1OC [Compound 35], which pest or weed control at 35 g/ha is on record?
A: Its pest or weed control at 35 g/ha is 75 to 84%.

Q: For COc1c(N)nc(-c2ccc(Br)cc2F)nc1C(=O)O [Compound 46], which pest or weed control at 35 g/ha is on record?
A: Its pest or weed control at 35 g/ha is 75 to 84%.

Same assay, conditions: Bassia scoparia, post-emergence, 504 h; Table 9; 70 g ai/ha; post-emergent; 21 d; read-out: Visual Growth Reduction (%) 21 Days After Application KCHSC

Q: Which pest or weed control at 70 g/ha does the source give for COC(=O)c1nc(-c2ccc(Br)cc2F)nc(N)c1OC [Compound 35] here?
A: The pest or weed control at 70 g/ha was 85 to 94%.

Q: Which pest or weed control at 70 g/ha does the source give for COc1c(N)nc(-c2ccc(Br)cc2F)nc1C(=O)O [Compound 46] here?
A: The pest or weed control at 70 g/ha was 85 to 94%.

Same assay, conditions: Bassia scoparia, post-emergence, 504 h; Table 9; 140 g ai/ha; post-emergent; 21 d; read-out: Visual Growth Reduction (%) 21 Days After Application KCHSC

Q: Which pest or weed control at 140 g/ha does the source give for COc1c(N)nc(-c2ccc(Br)cc2F)nc1C(=O)O [Compound 46] here?
A: Its pest or weed control at 140 g/ha is 85 to 94%.

Same assay, conditions: Table 9; dose for 50 percent growth reduction, probit analysis; 21 d

Q: Which “GR50 KCHSC” value does the source give for COC(=O)c1nc(-c2ccc(Br)cc2F)nc(N)c1OC [Compound 35] here?
A: The value was 8 g ai/ha.

Q: Which “GR50 KCHSC” value does the source give for COc1c(N)nc(-c2ccc(Br)cc2F)nc1C(=O)O [Compound 46] here?
A: The value was 10 g ai/ha.

Same assay, conditions: Table 9; dose for 80 percent growth reduction, probit analysis; 21 d

Q: With COC(=O)c1nc(-c2ccc(Br)cc2F)nc(N)c1OC [Compound 35] as the compound, how does the “GR80 KCHSC” value read?
A: The value was 37 g ai/ha.

Q: Which “GR80 KCHSC” value does the source give for COc1c(N)nc(-c2ccc(Br)cc2F)nc1C(=O)O [Compound 46] here?
A: Its value is 45 g ai/ha.
